Reference: publication PMC10382584, “Macrocyclization of linear molecules by deep learning to facilitate macrocyclic drug candidates discovery” (Nature Communications, 2023)

How the values were obtained:
Assay in all cases: biochemical
Parameters in all cases: DiscoveRx KINOMEscan competition binding, percent of DMSO control signal at 100 nM
Conditions in all cases: read-out: Fig. 4a / Percent Control / Compound 1; percent of DMSO control, competition binding
WEE2 = WEE2 (Homo sapiens, UniProt P0C1S8)
EGFR(L858R,T790M) = EGFR(L858R,T790M) (Homo sapiens, UniProt P00533, L858R/T790M)
MYLK4 = MYLK4 (Homo sapiens, UniProt Q86YV6)
EPHA1 = EPHA1 (Homo sapiens, UniProt P21709)
CDKL1 = CDKL1 (Homo sapiens, UniProt Q00532)
CSNK1D = CSNK1D (Homo sapiens, UniProt P48730)
GRK3 = GRK3 (Homo sapiens, UniProt P35626)
ACVR2B = ACVR2B (Homo sapiens, UniProt Q13705)
PKAC-alpha = target: T1, PKAC-alpha (Homo sapiens, UniProt P17612)
T1 construct: gene PRKACA

[1] = target: T2, RSK2(Kin.Dom.2-C-terminal) (Homo sapiens, UniProt P51812)
T2 construct: gene RPS6KA3; Kin.Dom.2-C-terminal

MAP4K2 = MAP4K2 (Homo sapiens, UniProt Q12851)
MST4 = target: T3, MST4 (Homo sapiens, UniProt Q9P289)
T3 construct: gene STK26

MEK3 = target: T4, MEK3 (Homo sapiens, UniProt P46734)
T4 construct: gene MAP2K3

FRK = FRK (Homo sapiens, UniProt P42685)
GSK3A = GSK3A (Homo sapiens, UniProt P49840)
PAK2 = PAK2 (Homo sapiens, UniProt Q13177)
MEK5 = target: T5, MEK5 (Homo sapiens, UniProt Q13163)
T5 construct: gene MAP2K5

CSF1R-autoinhibited = CSF1R-autoinhibited (Homo sapiens, UniProt P07333)
FLT3(ITD,F691L) = FLT3(ITD,F691L) (Homo sapiens, UniProt P36888, F691L/ITD)
PIK3CA(H1047Y) = PIK3CA(H1047Y) (Homo sapiens, UniProt P42336, H1047Y)
SYK = SYK (Homo sapiens, UniProt P43405)
NLK = NLK (Homo sapiens, UniProt Q9UBE8)
CSF1R = CSF1R (Homo sapiens, UniProt P07333)
TRKB = target: T6, TRKB (Homo sapiens, UniProt Q16620)
T6 construct: gene NTRK2

EPHA7 = EPHA7 (Homo sapiens, UniProt Q15375)
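Also: KINOMEscan kinase panel binding assay, signal normalized between DMSO as 100% and a positive control compound as 0%.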

T2 sequence (P51812 whole entry): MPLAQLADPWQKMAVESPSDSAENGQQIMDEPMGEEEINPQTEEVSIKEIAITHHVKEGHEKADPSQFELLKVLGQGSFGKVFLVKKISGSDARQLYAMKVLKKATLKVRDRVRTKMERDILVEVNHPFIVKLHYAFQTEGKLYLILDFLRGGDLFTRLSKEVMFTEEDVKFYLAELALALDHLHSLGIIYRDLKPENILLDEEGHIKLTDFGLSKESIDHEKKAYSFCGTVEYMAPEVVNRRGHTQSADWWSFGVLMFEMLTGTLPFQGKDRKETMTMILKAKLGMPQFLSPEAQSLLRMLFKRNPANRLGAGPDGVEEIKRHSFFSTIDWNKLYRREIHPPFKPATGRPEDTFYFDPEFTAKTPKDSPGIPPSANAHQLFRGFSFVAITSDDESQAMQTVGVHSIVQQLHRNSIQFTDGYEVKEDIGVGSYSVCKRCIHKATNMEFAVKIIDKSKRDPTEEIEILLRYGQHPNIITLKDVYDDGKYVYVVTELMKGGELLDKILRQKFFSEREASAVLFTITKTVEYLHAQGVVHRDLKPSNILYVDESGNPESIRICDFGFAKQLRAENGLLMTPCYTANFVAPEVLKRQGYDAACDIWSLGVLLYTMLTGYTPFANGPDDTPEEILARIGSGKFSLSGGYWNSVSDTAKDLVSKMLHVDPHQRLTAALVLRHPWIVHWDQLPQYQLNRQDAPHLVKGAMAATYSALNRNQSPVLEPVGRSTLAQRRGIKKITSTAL
ACVR2B, sequence (Q13705 whole entry): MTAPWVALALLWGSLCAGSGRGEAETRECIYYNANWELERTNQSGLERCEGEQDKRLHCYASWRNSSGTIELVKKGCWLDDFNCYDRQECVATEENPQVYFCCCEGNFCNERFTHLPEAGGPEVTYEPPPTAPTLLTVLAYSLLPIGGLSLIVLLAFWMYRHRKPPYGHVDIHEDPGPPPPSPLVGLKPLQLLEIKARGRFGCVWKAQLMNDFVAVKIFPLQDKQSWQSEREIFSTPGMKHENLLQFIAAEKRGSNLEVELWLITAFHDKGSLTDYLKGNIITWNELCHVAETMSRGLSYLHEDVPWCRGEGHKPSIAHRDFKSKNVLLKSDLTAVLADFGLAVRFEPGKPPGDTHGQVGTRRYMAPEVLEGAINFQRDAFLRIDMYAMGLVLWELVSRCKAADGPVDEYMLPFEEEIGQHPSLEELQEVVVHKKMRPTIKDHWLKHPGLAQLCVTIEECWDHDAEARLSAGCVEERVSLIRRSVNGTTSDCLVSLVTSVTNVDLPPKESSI
FRK, sequence (P42685 whole entry): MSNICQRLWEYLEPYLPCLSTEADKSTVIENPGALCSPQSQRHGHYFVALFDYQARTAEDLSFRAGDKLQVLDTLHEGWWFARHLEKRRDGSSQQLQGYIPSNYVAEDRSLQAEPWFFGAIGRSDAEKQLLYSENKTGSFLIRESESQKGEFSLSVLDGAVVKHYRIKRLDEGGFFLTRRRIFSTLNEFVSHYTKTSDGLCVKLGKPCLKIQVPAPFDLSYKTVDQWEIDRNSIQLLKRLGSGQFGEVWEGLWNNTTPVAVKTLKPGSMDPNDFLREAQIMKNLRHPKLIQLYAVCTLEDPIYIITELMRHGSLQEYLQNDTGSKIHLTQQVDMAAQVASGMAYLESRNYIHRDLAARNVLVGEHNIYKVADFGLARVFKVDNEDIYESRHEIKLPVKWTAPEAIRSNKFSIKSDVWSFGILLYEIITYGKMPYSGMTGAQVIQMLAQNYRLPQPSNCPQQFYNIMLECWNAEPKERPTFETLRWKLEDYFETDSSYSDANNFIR
PAK2, sequence (Q13177 whole entry): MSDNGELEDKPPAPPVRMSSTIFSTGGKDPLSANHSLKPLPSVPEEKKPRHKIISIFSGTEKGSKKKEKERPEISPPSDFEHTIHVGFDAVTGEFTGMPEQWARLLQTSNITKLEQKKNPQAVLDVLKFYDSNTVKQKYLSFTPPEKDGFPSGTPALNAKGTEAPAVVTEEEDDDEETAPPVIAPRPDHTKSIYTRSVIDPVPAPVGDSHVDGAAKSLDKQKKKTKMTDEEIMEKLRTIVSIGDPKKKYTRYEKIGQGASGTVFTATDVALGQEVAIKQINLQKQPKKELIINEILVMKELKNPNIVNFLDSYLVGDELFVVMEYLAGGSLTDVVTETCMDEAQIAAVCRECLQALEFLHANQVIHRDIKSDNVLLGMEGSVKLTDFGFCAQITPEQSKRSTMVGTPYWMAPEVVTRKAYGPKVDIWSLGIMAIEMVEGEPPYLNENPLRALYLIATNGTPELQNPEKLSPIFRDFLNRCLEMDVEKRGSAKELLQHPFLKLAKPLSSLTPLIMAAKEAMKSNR
CSF1R-autoinhibited, sequence (P07333 whole entry): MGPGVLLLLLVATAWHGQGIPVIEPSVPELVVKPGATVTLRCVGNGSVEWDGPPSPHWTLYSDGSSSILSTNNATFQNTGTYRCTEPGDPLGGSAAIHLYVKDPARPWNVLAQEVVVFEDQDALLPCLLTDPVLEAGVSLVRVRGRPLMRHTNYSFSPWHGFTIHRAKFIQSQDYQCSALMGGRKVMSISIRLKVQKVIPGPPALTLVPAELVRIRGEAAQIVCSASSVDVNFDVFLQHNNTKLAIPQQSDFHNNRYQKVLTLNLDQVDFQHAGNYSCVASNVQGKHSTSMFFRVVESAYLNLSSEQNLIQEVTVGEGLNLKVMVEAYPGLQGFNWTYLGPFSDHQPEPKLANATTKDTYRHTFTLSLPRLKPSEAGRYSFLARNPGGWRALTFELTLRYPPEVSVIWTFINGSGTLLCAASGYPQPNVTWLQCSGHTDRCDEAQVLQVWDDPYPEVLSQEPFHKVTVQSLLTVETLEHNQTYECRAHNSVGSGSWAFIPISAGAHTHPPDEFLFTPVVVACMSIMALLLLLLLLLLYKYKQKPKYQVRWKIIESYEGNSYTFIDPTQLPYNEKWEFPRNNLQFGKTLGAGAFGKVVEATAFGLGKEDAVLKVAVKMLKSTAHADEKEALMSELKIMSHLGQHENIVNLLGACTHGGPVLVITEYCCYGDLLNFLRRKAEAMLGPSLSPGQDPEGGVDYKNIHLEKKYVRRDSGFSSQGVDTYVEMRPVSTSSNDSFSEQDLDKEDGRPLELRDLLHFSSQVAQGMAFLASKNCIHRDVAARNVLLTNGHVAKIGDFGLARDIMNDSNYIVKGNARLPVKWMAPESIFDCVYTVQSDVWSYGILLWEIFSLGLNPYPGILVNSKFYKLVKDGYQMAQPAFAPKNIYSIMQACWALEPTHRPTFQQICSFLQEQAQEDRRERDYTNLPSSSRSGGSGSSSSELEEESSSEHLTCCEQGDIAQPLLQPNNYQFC
CSF1R, sequence (P07333 whole entry): as above
GRK3, sequence (P35626 whole entry): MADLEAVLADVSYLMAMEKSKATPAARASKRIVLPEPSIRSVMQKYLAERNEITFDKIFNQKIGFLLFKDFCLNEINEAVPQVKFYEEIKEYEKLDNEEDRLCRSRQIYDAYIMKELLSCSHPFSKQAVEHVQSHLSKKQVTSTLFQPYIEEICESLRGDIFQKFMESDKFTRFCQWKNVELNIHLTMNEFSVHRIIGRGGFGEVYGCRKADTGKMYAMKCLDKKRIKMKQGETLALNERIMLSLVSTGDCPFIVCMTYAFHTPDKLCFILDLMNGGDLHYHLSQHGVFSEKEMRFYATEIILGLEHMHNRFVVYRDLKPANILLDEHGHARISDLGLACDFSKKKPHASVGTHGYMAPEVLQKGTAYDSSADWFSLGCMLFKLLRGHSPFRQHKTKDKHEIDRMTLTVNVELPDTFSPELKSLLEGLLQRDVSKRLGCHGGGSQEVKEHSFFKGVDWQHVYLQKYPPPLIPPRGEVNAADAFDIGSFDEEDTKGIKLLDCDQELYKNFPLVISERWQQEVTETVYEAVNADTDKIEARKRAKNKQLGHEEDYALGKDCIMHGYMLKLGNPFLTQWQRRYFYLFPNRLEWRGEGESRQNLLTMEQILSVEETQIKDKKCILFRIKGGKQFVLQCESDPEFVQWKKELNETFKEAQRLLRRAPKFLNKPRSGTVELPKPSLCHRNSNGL
WEE2, sequence (P0C1S8 whole entry): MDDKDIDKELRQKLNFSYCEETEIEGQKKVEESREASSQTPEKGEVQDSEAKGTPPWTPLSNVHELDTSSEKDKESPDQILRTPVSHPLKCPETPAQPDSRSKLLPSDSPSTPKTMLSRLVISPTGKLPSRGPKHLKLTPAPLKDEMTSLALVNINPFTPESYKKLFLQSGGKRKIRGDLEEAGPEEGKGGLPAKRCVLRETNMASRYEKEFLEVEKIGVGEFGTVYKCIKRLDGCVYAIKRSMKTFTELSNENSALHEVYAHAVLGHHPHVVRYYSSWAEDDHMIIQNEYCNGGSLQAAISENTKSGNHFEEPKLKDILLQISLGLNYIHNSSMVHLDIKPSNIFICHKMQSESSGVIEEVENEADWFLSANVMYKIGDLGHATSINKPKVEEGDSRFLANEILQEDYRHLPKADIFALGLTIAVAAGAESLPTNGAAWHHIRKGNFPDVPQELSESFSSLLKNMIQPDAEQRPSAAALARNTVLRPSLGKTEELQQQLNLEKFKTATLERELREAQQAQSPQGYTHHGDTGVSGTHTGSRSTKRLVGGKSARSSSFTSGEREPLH
MYLK4, sequence (Q86YV6 whole entry): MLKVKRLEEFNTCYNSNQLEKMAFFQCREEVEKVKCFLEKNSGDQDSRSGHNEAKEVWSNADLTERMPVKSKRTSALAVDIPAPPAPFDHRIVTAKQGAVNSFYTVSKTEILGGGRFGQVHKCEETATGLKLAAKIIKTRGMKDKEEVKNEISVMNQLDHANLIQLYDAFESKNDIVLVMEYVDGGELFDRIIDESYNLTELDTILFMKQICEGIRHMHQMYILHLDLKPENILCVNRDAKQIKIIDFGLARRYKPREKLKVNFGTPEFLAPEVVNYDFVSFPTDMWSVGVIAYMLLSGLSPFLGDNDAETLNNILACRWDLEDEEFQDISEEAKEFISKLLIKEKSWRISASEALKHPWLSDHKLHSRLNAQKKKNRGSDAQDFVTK

`Cc1cnc2nc1Nc1cccc(c1)COCc1cc(ccc1OCCN1CCCC1)N2` [Compound 1] was tested, and the remaining binding at 0.1 µM (WEE2) was 78%, the remaining binding at 0.1 µM (EGFR(L858R,T790M)) was 65% and the remaining binding at 0.1 µM (MYLK4) was 84%. It also gave a remaining binding at 0.1 µM (EPHA1) of 91%, a remaining binding at 0.1 µM (CDKL1) of 86% and a remaining binding at 0.1 µM (CSNK1D) of 100%. It also gave a remaining binding at 0.1 µM (GRK3) of 72%, a remaining binding at 0.1 µM (ACVR2B) of 96% and a remaining binding at 0.1 µM (PKAC-alpha) of 99%. It also gave a remaining binding at 0.1 µM [1] of 87%, a remaining binding at 0.1 µM (MAP4K2) of 78% and a remaining binding at 0.1 µM (MST4) of 100%. It also gave a remaining binding at 0.1 µM (MEK3) of 76%, a remaining binding at 0.1 µM (FRK) of 84% and a remaining binding at 0.1 µM (GSK3A) of 100%. It also gave a remaining binding at 0.1 µM (PAK2) of 100%, a remaining binding at 0.1 µM (MEK5) of 22% and a remaining binding at 0.1 µM (CSF1R-autoinhibited) of 54%. It also gave a remaining binding at 0.1 µM (FLT3(ITD,F691L)) of 0%, a remaining binding at 0.1 µM (PIK3CA(H1047Y)) of 91% and a remaining binding at 0.1 µM (SYK) of 99%. The remaining binding at 0.1 µM (NLK) was 95%, the remaining binding at 0.1 µM (CSF1R) was 62% and the remaining binding at 0.1 µM (TRKB) was 40%. For the same molecule, the remaining binding at 0.1 µM (EPHA7) was 98%.
